Series [1] relates to HepG2 cells. The experiment in a line: Apoptosis assay, Annexin V-FITC/PI flow cytometry. The note with it: 100 μg/ml. It counts as cell-based. The procedure: The cell apoptosis assay was performed by flow cytometry using an Annexin V-FITC Apoptosis Detection Kit (BioVision, Mountain View, Calif.) according to the manufacturer's protocol. For flow cytometric analysis, HepG2 cells (5×10^5 cells) were trypsinized, gently washed twice with PBS, and subsequently resuspended in 500 μL of 1× binding buffer. The cells were stained by adding 5 μL of Annexin V-FITC and propidium iodide (PI) in the dark at room temperature for 5 minutes. The green fluorescence of FITC-bound Annexin V and the red fluorescence of DNA-bound PI were measured using a Canto II flow cytometer (BD Biosciences).

Another series concerns PLC. The note with it: PLC hepatocellular carcinoma cell line; cited from earlier work.
For series [2], the system named is HepG2 cells. Put plainly: Intracellular reactive oxygen species (ROS) levels, CellROX flow cytometry. It counts as cell-based. The note with it: 100 μg/ml, 6 hours. The procedure: CellROX Deep Red Reagent was purchased from Invitrogen (Carlsbad, Calif.), and intracellular ROS levels were measured. […] The treated cells were cultured at 37° C. for 6 hours, and the cell concentration of the sample was adjusted to 5×10^3 cells/ml. Then, the cells were cultured with a CellROX Deep Red Reagent (1 mM, Invitrogen) at 37° C. for 30 minutes while protected from light. Furthermore, the cells were stained with SYTOX Blue Dead Cell Stain (5 mM, Invitrogen), and counted by flow cytometry after dead cell exclusion. Flow cytometric analysis was performed using a Canto II flow cytometer (BD Biosciences).

For series [3] the following is noted: 30 mg once a day in oral administration, acute leukemia; cited from earlier work.
Another series concerns HuH7. As to conditions: HuH7 hepatocellular carcinoma cell line; cited from earlier work.

This is an account of results in patent US20210046190A1, “ANTICANCER AGENT” (OSAKA UNIVERSITY, priority 2018, published 2021).

≈ marks a conversion by molar mass, not a printed value.

As a reminder, the IC30 is the point of the concentration-response curve where the effect stands at 30%.

As for `CC(C)C[C@H](NC(=O)[C@@H](O)[C@H](N)Cc1ccccc1)C(=O)O` [ubenimex, (2S)-2-[(2S,3R)-3-amino-2-hydroxy-4-phenylbutanoylamino]-4-methylpentanoic acid], in the series on HepG2 cells [1], the apoptosis entry is “has an effect of inducing apoptosis”. Moreover, the concentration for an effect of 30% (IC30) with PLC was 498.8 µg/mL (≈ 1620 µM); in the series on HuH7 it was 394.8 µg/mL (≈ 1280 µM). In addition, the “intracellular ROS levels” value with HepG2 cells [2] is on record as “has an effect of enhancing intracellular ROS levels”. Moreover, the maximum blood concentration in series [3] is 2.21 µg/mL.
